EC50 data for 23 molecules are collected here from patent US20230391758A1, “MODIFIED BENZOFURAN-CARBOXAMIDES AS GLUCOSYLCERAMIDE SYNTHASE INHIBITORS” (MERCK SHARP & DOHME CORP., priority 2020, published 2023).

The structures appear in SMILES notation.

Chain of GCS enzyme (glucosylceramide synthase) contained within Golgi preparations isolated from human A375 malignant melanoma skin cells (Q16739 whole entry): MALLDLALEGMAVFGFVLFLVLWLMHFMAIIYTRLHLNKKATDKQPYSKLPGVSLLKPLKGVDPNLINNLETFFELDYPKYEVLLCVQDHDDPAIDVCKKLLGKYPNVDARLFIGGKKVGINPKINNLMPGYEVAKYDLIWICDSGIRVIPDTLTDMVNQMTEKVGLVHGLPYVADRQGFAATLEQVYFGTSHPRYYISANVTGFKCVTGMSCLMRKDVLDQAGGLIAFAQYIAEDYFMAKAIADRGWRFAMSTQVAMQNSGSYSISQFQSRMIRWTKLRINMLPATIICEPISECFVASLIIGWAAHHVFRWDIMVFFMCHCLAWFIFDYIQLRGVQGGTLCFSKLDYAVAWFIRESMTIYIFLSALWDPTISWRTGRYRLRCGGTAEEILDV

The assay deals with GCS enzyme (glucosylceramide synthase) contained within Golgi preparations isolated from human A375 malignant melanoma skin cells (Homo sapiens (Human), UniProt Q16739). Kind of assay: UDP-Glo glucosylceramide synthase biochemical assay. As to conditions: 1.5 μg crude golgi preparation from A375 cells; C6 ceramide and UDP-glucose at 2×Km; 20 h incubation at room temperature; UDP detected by luminescence. From the text:
UDP-Glo™ Glucosylceramide Synthase Biochemical Assay
A UDP-Glo™ glucosylceramide synthase biochemical assay was utilized to evaluate the effect of test compounds on the activity of endogenous levels of GCS enzyme contained within Golgi preparations isolated from human A375 malignant melanoma skin cells. The UDP-Glo™ glucosylceramide synthase assay uses UDP-Glucose as a nucleotide-glycosyl donor and ceramide as substrate acceptor molecules. In the reaction, glucosylceramide synthase (GCS) transfers glucose from UDP-Glucose to ceramide. Glucosylceramide and UDP are released as products.
Using Promega's UDP-Glo™ Glycosyltransferase assay kit (Promega Corporation, Madison, WI, USA (Promega)), GCS activity was indirectly measured by detecting the amount of UDP produced. An aliquot of GCS enzyme (1.5 μg crude golgi preparation, total protein) and titrated test compound were aliquoted to each well and incubated for 30 minutes at room temperature. Substrate mixture was prepared by mixing C6 ceramide (Avanti Polar Lipids, Alabaster, AL USA (Avanti)) (micelles prepared at 0.6 mM in 0.6 mM DOPC) and UDP-glucose (20 μ.M; Promega), at concentrations equivalent to 2×Km, in assay buffer (25 mM HEPES (pH 7.5), 50 mM KCl, 5 mM MgCl2). An equivalent volume of substrate mixture was then added to each well. Following a 20 h incubation at room temperature to allow for GCS turnover of substrate, an equal volume of UDP detection reagent (Promega) was added to each well and incubated for an additional 75 minutes at room temperature to simultaneously convert the accumulated UDP product into ATP and generate light in a luciferase reaction. The generated light was detected using a luminometer. […] luminescence values (RLUs) were normalized to mean “min” and “max” effects, as determined on each plate. “Min” was defined as the mean of the values of the wells treated with vehicle (DMSO) and which represent 0% inhibition; “max” was defined as the mean of the values of the wells treated with a reference inhibitor and which represent the 100% effect. Values for % Emax and EC50 were determined by best-fitting the normalized data to a curve in Activity Base along a four-parameter logistic nonlinear regression (4PL) model (based on the Levenberg-Marquardt algorithm and defined by the equation below): […]
where: n is 4PMin (bottom of the curve); m is 4PMax (top of the curve); i is IP (inflection point of curve); and p is slope. See Levenberg, K., “A Method for the Solution of Certain Problems in Least Squares”, Quart. Appl. Math. 2, (1944), pp 164-168 and Marquardt, D., “An Algorithm for Least Squares Estimation on Nonlinear Parameters”, SIAM J. Appl. Math. 11, (1963) pp 431-441.
In the case of `COc1ncc(C#N)cc1-c1cccc2cc(C(=O)NC34CCC(O)(CC3)C4)oc12` [Compound 38, 7-(5-cyano-2-methoxypyridin-3-yl)-N-(4-hydroxybicyclo[2.2.1]heptan-1-yl)benzofuran-2-carboxamide], the EC50 stood at 0.79 nM.

Turning to `CC(C)Oc1ccc(C#N)cc1-c1cc(F)cc2cc(C(=O)N[C@H]3C[C@@H](O)C3)oc12` [Compound 26, Cis-7-(5-cyano-2-isopropoxy-phenyl)-5-fluoro-N-(3-hydroxycyclobutyl) benzofuran-2-carboxamide], the EC50 came to 0.1 nM. Compared with the last molecule, the EC50 is about 7.9-fold lower.

In the case of `CCOc1ccc(F)cc1-c1cccc2cc(C(=O)N[C@@H]3CC[C@H](O)C3)oc12` [Compound 33, 7-(2-ethoxy-5-fluoro-phenyl)-N-[(1R,3S)-3-hydroxycyclopentyl] benzofuran-2-carboxamide], the EC50 is 6.5 nM. Compared with the last molecule, the EC50 is about 65-fold higher.

As to `CCCCOc1ccccc1-c1cccc2cc(C(=O)NC(C)(C)CO)oc12` [Compound 13, 7-(2-butoxyphenyl)-N-(2-hydroxy-1,1-dimethyl-ethyl)benzofuran-2-carboxamide], the response was half-maximal at 28 nM (EC50).

For the molecule `CCCOc1ccccc1-c1cccc2cc(C(=O)NC3CN4CCC3CC4)oc12` (racemic) [Compound 23, (R and S)-7-(2-propoxyphenyl)-N-quinuclidin-3-yl-benzofuran-2-carboxamide], the response was half-maximal at 0.044 nM (EC50).

For `O=C(N[C@H]1CC[C@H](O)CC1)c1cc2cccc(-c3ccccc3OCC(F)(F)F)c2o1` [Compound 34, Trans-N-(4-hydroxycyclohexyl)-7-[2-(2,2,2-trifluoroethoxy)phenyl] benzofuran-2-carboxamide], the EC50 was 34 nM. This EC50 lies about 770-fold higher than the previous one.

For the molecule `Cc1nn(C)c(C)c1-c1cccc2cc(C(=O)Nc3ccc4cnccc4n3)oc12` [Compound 2, N-(1,6-naphthyridin-2-yl)-7-(1,3,5-trimethylpyrazol-4-yl)benzofuran-2-carboxamide], the response was half-maximal at 0.065 nM (EC50).

The molecule `O=C(NC1CNCCC1(F)F)c1nc2cccc(-c3ccccc3OCC(F)(F)F)c2o1` (racemic) [Compound 39, (R and S)-N-(4,4-difluoropiperidin-3-yl)-7-(2-(2,2,2-trifluoroethoxy)phenyl)benzo[d]oxazole-2-carboxamide] displayed an EC50 of 44 nM.

Consider `O=C(N[C@H]1CC[C@H](CO)CC1)c1cc2cc(F)cc(-c3ccccc3OCC(F)(F)F)c2o1` [Compound 1, 5-fluoro-N-(trans-4-(hydroxymethyl)cyclohexyl)-7-(2-(2,2,2-trifluoroethoxy)phenyl) benzofuran-2-carboxamide], for which the EC50 was determined as 0.99 nM.

Molecule `O=C(NC1CCC(O)CC1F)c1cc2cccc(-c3ccccc3OCC(F)(F)F)c2o1` (centres unmarked) [Compound 11, N-(2-fluoro-4-hydroxy-cyclohexyl)-7-[2-(2,2,2-trifluoroethoxy)phenyl] benzofuran-2-carboxamide] displayed an EC50 of 7.1 nM.

`N#Cc1ccc(OC(F)F)c(-c2cccc3cc(C(=O)NC45CCC(O)(CC4)C5)oc23)c1` [Compound 4, 7-[5-cyano-2-(difluoromethoxy)phenyl]-N-(4-hydroxynorbornan-1-yl)benzofuran-2-carboxamide] came in with an EC50 of 0.1 nM.

For `O=C(N[C@@H]1CNCC[C@H]1F)c1cc2cccc(-c3ccccc3OCC(F)(F)F)c2o1` (relative stereo) [Compound 15, N-(trans-4-fluoro-3-piperidyl)-7-[2-(2,2,2-trifluoroethoxy)phenyl] benzofuran-2-carboxamide], the EC50 was determined as 1.7 nM.

As to `CC(C)Oc1ccc(C#N)cc1-c1cc(F)cc2cc(C(=O)NC(C)(C)CO)oc12` [Compound 29, 7-(5-cyano-2-isopropoxy-phenyl)-5-fluoro-N-(2-hydroxy-1,1-dimethyl-ethyl)benzofuran-2-carboxamide], the EC50 turned out to be 0.82 nM. This EC50 is about 2.1-fold lower than that of the molecule before.

In turn, `COc1ccc(Cl)cc1-c1cc(F)cc2cc(C(=O)N[C@H]3C[C@@H](CO)C3)oc12` [Compound 28, Cis-7-(5-chloro-2-methoxy-phenyl)-5-fluoro-N-[3-(hydroxymethyl)cyclobutyl]be nzofuran-2-carboxamide] had an EC50 of 0.6 nM.

The molecule `COc1ccc(F)c(F)c1-c1cccc2cc(C(=O)N[C@@H]3CC[C@H](O)C3)oc12` [Compound 30, 7-(2,3-difluoro-6-methoxy-phenyl)-N-[(1R,3S)-3-hydroxycyclopentyl] benzofuran-2-carboxamide] displayed an EC50 of 3.4 nM.

Molecule `CCCCOc1ccccc1-c1cccc2cc(C(=O)NC3CN4CCC3CC4)oc12` (racemic) [Compound 21, (R and S)-7-(2-butoxyphenyl)-N-quinuclidin-3-yl-benzofuran-2-carboxamide] registered an EC50 of 0.021 nM.

`N#Cc1ccc(F)c(-c2cccc3cc(C(=O)N[C@@H]4CC[C@H](O)C4)oc23)c1` [Compound 32, 7-(5-cyano-2-fluoro-phenyl)-N-[(1R,3S)-3-hydroxycyclopentyl] benzofuran-2-carboxamide] returned an EC50 of 5 nM. This EC50 is about 240-fold higher than that of the molecule before.

In turn, `COc1ccc(C#N)cc1-c1cc(Cl)cc2cc(C(=O)N[C@@H]3CC[C@H](O)C3)oc12` [Compound 5, 5-chloro-7-(5-cyano-2-methoxy-phenyl)-N-[(1R,3S)-3-hydroxycyclopentyl] benzofuran-2-carboxamide] had an EC50 of 0.17 nM.

`O=C(NC1CNCCC1(F)F)c1cc2cccc(-c3ccccc3OCC(F)(F)F)c2o1` (racemic) [Compound 14, (R and S)-N-(4,4-difluoro-3-piperidyl)-7-[2-(2,2,2-trifluoroethoxy)phenyl] benzofuran-2-carboxamide] had an EC50 of 0.48 nM. This EC50 is about 2.8-fold higher than that of the molecule before.

With `COc1cc(-c2ccccc2OCC(F)(F)F)c2oc(C(=O)NC3CCC(CO)CC3)cc2c1` (centres unmarked) [Compound 31, N-[4-(hydroxymethyl)cyclohexyl]-5-methoxy-7-[2-(2,2,2-trifluoroethoxy)phenyl] benzofuran-2-carboxamide], the midpoint of the response, the EC50, lay at 4.1 nM.

`CCCOc1ccccc1-c1cccc2cc(C(=O)NC3CCNCC3(F)F)oc12` (single isomer, unassigned) [Compound 18, N-[(4R or 4S)-3,3-difluoro-4-piperidyl]-7-(2-propoxyphenyl)benzofuran-2-carboxamide]: the midpoint of the response, the EC50, lay at 140 nM. This EC50 is about 34-fold higher than that of the molecule before.

Turning to `COCCOc1ccccc1-c1cccc2cc(C(=O)Nc3cccnc3)oc12` [Compound 35, 7-[2-(2-methoxyethoxy)phenyl]-N-(3-pyridyl)benzofuran-2-carboxamide], the midpoint of the response, the EC50, lay at 94 nM. The EC50 values of the last two molecules are within 1.5-fold of each other.

Molecule `C[C@]1(NC(=O)c2cc3cc(F)cc(-c4ccccc4OCC(F)(F)F)c3o2)CC[C@H](O)CC1` [Compound 27, Cis or trans-5-fluoro-N-(4-hydroxy-1-methyl-cyclohexyl)-7-[2-(2,2,2-trifluoroethoxy)phenyl] benzofuran-2-carboxamide] came in with an EC50 of 0.24 nM.

The EC50 is the concentration giving half of the maximal effect.
